≈ marks a conversion by molar mass, not a printed value.
Tested on: Staphylococcus epidermidis ATCC 12228
Test: antimicrobial activity, MIC
Type: cell-based
Conditions: Staphylococcus epidermidis ATCC 12228

Structure (SMILES)	MIC [µg/mL]
CCCOc1ccccc1C(=CSc1ccccc1)n1ccnc1 (single isomer, unassigned) [Compound 65]	6.25 (≈ 18.6 µM)

Tested on: Trichophyton mentagrophytes IFO 5812
Test: antimicrobial activity, MIC
Type: cell-based
Conditions: Trichophyton mentagrophytes IFO 5812

Structure (SMILES)	MIC [µg/mL]
CCCOc1ccccc1C(=CSc1ccccc1)n1ccnc1 (single isomer, unassigned) [Compound 65]	3.12 (≈ 9.27 µM)

Tested on: Cladosporium fulvum IAM 5006
Test: antimicrobial activity, MIC
Type: cell-based
Conditions: Cladosporium fulvum IAM 5006

Structure (SMILES)	MIC [µg/mL]
CCCOc1ccccc1C(=CSc1ccccc1)n1ccnc1 (single isomer, unassigned) [Compound 65]	> 100

Tested on: Candida albicans NHL 4019
Test: antimicrobial activity, MIC
Type: cell-based
Conditions: Candida albicans NHL 4019

Structure (SMILES)	MIC [µg/mL]
CCCOc1ccccc1C(=CSc1ccccc1)n1ccnc1 (single isomer, unassigned) [Compound 65]	> 100

Tested on: Pyricularia oryzae IAM 5016
Test: microbe, parasite or virus in culture
Type: cell-based
Conditions: Pyricularia oryzae IAM 5016

Structure (SMILES)	MIC [µg/mL]
CCCOc1ccccc1C(=CSc1ccccc1)n1ccnc1 (single isomer, unassigned) [Compound 65]	1.56 (≈ 4.64 µM)

Tested on: Staphylococcus aureus Terajima
Test: antimicrobial activity, MIC
Type: cell-based
Conditions: not given

Structure (SMILES)	MIC [µg/mL]
CCCOc1ccccc1C(=CSc1ccccc1)n1ccnc1 (single isomer, unassigned) [Compound 65]	6.25 (≈ 18.6 µM)

Tested on: Helminthosporium sesamum IAM 5012
Test: antimicrobial activity, MIC
Type: cell-based
Conditions: Helminthosporium sesamum IAM 5012

Structure (SMILES)	MIC [µg/mL]
CCCOc1ccccc1C(=CSc1ccccc1)n1ccnc1 (single isomer, unassigned) [Compound 65]	100 (≈ 297 µM)

Tested on: Aspergillus niger ATCC 9642
Test: antimicrobial activity, MIC
Type: cell-based
Conditions: Aspergillus niger ATCC 9642

Structure (SMILES)	MIC [µg/mL]
CCCOc1ccccc1C(=CSc1ccccc1)n1ccnc1 (single isomer, unassigned) [Compound 65]	> 100

Tested on: Penicillium chrysogenum ATCC 6010
Test: antimicrobial activity, MIC
Type: cell-based
Conditions: Penicillium chrysogenum ATCC 6010

Structure (SMILES)	MIC [µg/mL]
CCCOc1ccccc1C(=CSc1ccccc1)n1ccnc1 (single isomer, unassigned) [Compound 65]	> 100

Tested on: Debaryomyces kloeckeri IFO 0015
Test: antimicrobial activity, MIC
Type: cell-based
Conditions: not given

Structure (SMILES)	MIC [µg/mL]
CCCOc1ccccc1C(=CSc1ccccc1)n1ccnc1 (single isomer, unassigned) [Compound 65]	> 100

Tested on: Trichophyton rubrum NHL J
Test: antimicrobial activity, MIC
Type: cell-based
Conditions: Trichophyton rubrum NHL J

Structure (SMILES)	MIC [µg/mL]
CCCOc1ccccc1C(=CSc1ccccc1)n1ccnc1 (single isomer, unassigned) [Compound 65]	3.12 (≈ 9.27 µM)

Tested on: Staphylococcus aureus FDA 209P
Test: antimicrobial activity, MIC
Type: cell-based
Conditions: not given

Structure (SMILES)	MIC [µg/mL]
CCCOc1ccccc1C(=CSc1ccccc1)n1ccnc1 (single isomer, unassigned) [Compound 65]	12.5 (≈ 37.2 µM)

Tested on: Saccharomyces ruxii 6507
Test: antimicrobial activity, MIC
Type: cell-based
Conditions: Saccharomyces ruxii 6507; read-out: MIC

Structure (SMILES)	MIC [µg/mL]
CCCOc1ccccc1C(=CSc1ccccc1)n1ccnc1 (single isomer, unassigned) [Compound 65]	6.25 (≈ 18.6 µM)

Tested on: Staphylococcus aureus Smith
Test: antimicrobial activity, MIC
Type: cell-based
Conditions: not given

Structure (SMILES)	MIC [µg/mL]
CCCOc1ccccc1C(=CSc1ccccc1)n1ccnc1 (single isomer, unassigned) [Compound 65]	6.25 (≈ 18.6 µM)

Tested on: Microsporum audounii IFO 6074
Test: antimicrobial activity, MIC
Type: cell-based
Conditions: Microsporum audounii IFO 6074

Structure (SMILES)	MIC [µg/mL]
CCCOc1ccccc1C(=CSc1ccccc1)n1ccnc1 (single isomer, unassigned) [Compound 65]	6.25 (≈ 18.6 µM)

Tested on: Trichophyton tonsurans IFO 5928
Test: antimicrobial activity, MIC
Type: cell-based
Conditions: Trichophyton tonsurans IFO 5928

Structure (SMILES)	MIC [µg/mL]
CCCOc1ccccc1C(=CSc1ccccc1)n1ccnc1 (single isomer, unassigned) [Compound 65]	12.5 (≈ 37.2 µM)

Tested on: Candida albicans Yu-1200
Test: antimicrobial activity, MIC
Type: cell-based
Conditions: not given

Structure (SMILES)	MIC [µg/mL]
CCCOc1ccccc1C(=CSc1ccccc1)n1ccnc1 (single isomer, unassigned) [Compound 65]	> 100

Tested on: Gibberella fujikuroi IAM 8046
Test: antimicrobial activity, MIC
Type: cell-based
Conditions: Gibberella fujikuroi IAM 8046

Structure (SMILES)	MIC [µg/mL]
CCCOc1ccccc1C(=CSc1ccccc1)n1ccnc1 (single isomer, unassigned) [Compound 65]	> 100

Tested on: Sarcina lutea ATCC 9341
Test: antimicrobial activity, MIC
Type: cell-based
Conditions: Sarcina lutea ATCC 9341

Structure (SMILES)	MIC [µg/mL]
CCCOc1ccccc1C(=CSc1ccccc1)n1ccnc1 (single isomer, unassigned) [Compound 65]	3.12 (≈ 9.27 µM)

Tested on: Aspergillus oryzae IMF 4014
Test: antimicrobial activity, MIC
Type: cell-based
Conditions: Aspergillus oryzae IMF 4014

Structure (SMILES)	MIC [µg/mL]
CCCOc1ccccc1C(=CSc1ccccc1)n1ccnc1 (single isomer, unassigned) [Compound 65]	> 100

Tested on: Epidermophyton floccosum IFO 9045
Test: antimicrobial activity, MIC
Type: cell-based
Conditions: Epidermophyton floccosum IFO 9045

Structure (SMILES)	MIC [µg/mL]
CCCOc1ccccc1C(=CSc1ccccc1)n1ccnc1 (single isomer, unassigned) [Compound 65]	100 (≈ 297 µM)

Tested on: Fusarium moniliforme IAM 5062
Test: antimicrobial activity, MIC
Type: cell-based
Conditions: Fusarium moniliforme IAM 5062

Structure (SMILES)	MIC [µg/mL]
CCCOc1ccccc1C(=CSc1ccccc1)n1ccnc1 (single isomer, unassigned) [Compound 65]	> 100

Tested on: Bacillus subtilis ATCC 6633
Test: antimicrobial activity, MIC
Type: cell-based
Conditions: Bacillus subtilis ATCC 6633

Structure (SMILES)	MIC [µg/mL]
CCCOc1ccccc1C(=CSc1ccccc1)n1ccnc1 (single isomer, unassigned) [Compound 65]	3.12 (≈ 9.27 µM)

Tested on: Saccharomyces cerevisiae ATCC 9763
Test: antimicrobial activity, MIC
Type: cell-based
Conditions: Saccharomyces cerevisiae ATCC 9763

Structure (SMILES)	MIC [µg/mL]
CCCOc1ccccc1C(=CSc1ccccc1)n1ccnc1 (single isomer, unassigned) [Compound 65]	25 (≈ 74.3 µM)

Tested on: Microsporum gypseum IFO 8231
Test: antimicrobial activity, MIC
Type: cell-based
Conditions: Microsporum gypseum IFO 8231

Structure (SMILES)	MIC [µg/mL]
CCCOc1ccccc1C(=CSc1ccccc1)n1ccnc1 (single isomer, unassigned) [Compound 65]	12.5 (≈ 37.2 µM)

Tested on: Streptococcus faecalis IFO 12964
Test: antimicrobial activity, MIC
Type: cell-based
Conditions: Streptococcus faecalis IFO 12964

Structure (SMILES)	MIC [µg/mL]
CCCOc1ccccc1C(=CSc1ccccc1)n1ccnc1 (single isomer, unassigned) [Compound 65]	12.5 (≈ 37.2 µM)

Tested on: Micrococcus lysodeixticus IFO 3333
Test: antimicrobial activity, MIC
Type: cell-based
Conditions: Micrococcus lysodeixticus IFO 3333

Structure (SMILES)	MIC [µg/mL]
CCCOc1ccccc1C(=CSc1ccccc1)n1ccnc1 (single isomer, unassigned) [Compound 65]	1.56 (≈ 4.64 µM)

Tested on: Trichophyton mentagrophytes QM 248
Test: antimicrobial activity, MIC
Type: cell-based
Conditions: Trichophyton mentagrophytes QM 248

Structure (SMILES)	MIC [µg/mL]
CCCOc1ccccc1C(=CSc1ccccc1)n1ccnc1 (single isomer, unassigned) [Compound 65]	12.5 (≈ 37.2 µM)

Tested on: Microsporum cookei IFO 8303
Test: antimicrobial activity, MIC
Type: cell-based
Conditions: Microsporum cookei IFO 8303

Structure (SMILES)	MIC [µg/mL]
CCCOc1ccccc1C(=CSc1ccccc1)n1ccnc1 (single isomer, unassigned) [Compound 65]	100 (≈ 297 µM)

— patent publication US4740601A, “Imidazole derivatives having antimicrobial activities” (SS Pharmaceutical Co., Ltd., priority 1985, dated 1988)
